Laboratory results as given in publication PMC12491715 (Acta Pharmaceutica Sinica. B, 2025).

Legend:
α2 adrenoreceptors = tested on: α2 adrenoreceptors; set-up: method as in PMID 1975199, PMID 16389294; details: α2 adrenergic antagonist; cited from earlier work
[1] = set-up: method as in PMID 1975199, PMID 16389294; details: in humans; cited from earlier work
hAChE = hAChE (Homo sapiens, UniProt P22303); experiment: ChE IC50 determination, method of Ellman, hAChE; format: biochemical; details: for remaining activity at 100 µM: residual activity at 100 μmol/L, after 5 min preincubation, read-out: hAChE RA±SD (residual activity)
Sequence of hAChE (P22303 32-614): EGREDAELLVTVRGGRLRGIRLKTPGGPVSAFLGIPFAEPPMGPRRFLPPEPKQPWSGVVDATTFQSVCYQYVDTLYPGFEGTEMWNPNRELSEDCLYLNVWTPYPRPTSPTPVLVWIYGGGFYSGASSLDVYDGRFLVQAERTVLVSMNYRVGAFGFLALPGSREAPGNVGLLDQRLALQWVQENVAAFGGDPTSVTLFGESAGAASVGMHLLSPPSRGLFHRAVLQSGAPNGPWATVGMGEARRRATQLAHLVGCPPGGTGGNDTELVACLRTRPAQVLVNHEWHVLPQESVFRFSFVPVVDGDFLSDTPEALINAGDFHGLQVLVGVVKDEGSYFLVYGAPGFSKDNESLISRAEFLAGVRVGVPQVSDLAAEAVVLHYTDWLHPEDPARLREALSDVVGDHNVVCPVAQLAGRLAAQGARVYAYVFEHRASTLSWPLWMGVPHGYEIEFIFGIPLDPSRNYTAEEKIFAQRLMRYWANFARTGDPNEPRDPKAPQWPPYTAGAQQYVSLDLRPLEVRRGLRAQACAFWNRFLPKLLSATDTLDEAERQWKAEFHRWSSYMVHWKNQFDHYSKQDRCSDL
Method: (§1) The inhibitory potencies of the compounds against the ChEs were determined using the method of Ellman following the procedure described previously. Briefly, compound stock solutions in DMSO were incubated with Ellman’s reagent and ChEs (final concentrations: 370 μmol/L Ellman’s reagent, approximately 1 nmol/L or 50 pmol/L hBChE or hAChE, respectively) in 0.1 mol/L sodium phosphate pH 8.0 for 5 min at 20 °C. For time-dependency measurements, the pre-incubation time was varied (1, 5, 15, 30 or 60 min). The reactions were started by the addition of the substrate (final concentration, 500 μmol/L butyrylthiocholine iodide or acetylthiocholine iodide for hBChE and hAChE, respectively). The final content of DMSO was always 1%. The increase in absorbance at 412 nm was monitored for 2 min using a 96-well microplate reader (Synergy HT, BioTek Instruments, VT, USA). The initial velocities in the presence (vi) and absence (v0) of the test compounds were calculated. The inhibitory potencies were expressed as the residual activities, according to Eq. (1):(1) RA = vi / v0
(§2) For IC50 determinations, at least seven different concentrations for each compound were used. The IC50 values were obtained by plotting the residual ChE activities against the applied inhibitor concentrations, with the experimental data fitted to a four-parameter logistic function (GraphPad Prism 9.4). Tacrine and donepezil were used as positive controls.

hBChE [2] = biological target: T1, hBChE (Homo sapiens, UniProt P06276); experiment: ChE IC50 determination, method of Ellman, hBChE; format: biochemical
T1 sequence (P06276 29-602): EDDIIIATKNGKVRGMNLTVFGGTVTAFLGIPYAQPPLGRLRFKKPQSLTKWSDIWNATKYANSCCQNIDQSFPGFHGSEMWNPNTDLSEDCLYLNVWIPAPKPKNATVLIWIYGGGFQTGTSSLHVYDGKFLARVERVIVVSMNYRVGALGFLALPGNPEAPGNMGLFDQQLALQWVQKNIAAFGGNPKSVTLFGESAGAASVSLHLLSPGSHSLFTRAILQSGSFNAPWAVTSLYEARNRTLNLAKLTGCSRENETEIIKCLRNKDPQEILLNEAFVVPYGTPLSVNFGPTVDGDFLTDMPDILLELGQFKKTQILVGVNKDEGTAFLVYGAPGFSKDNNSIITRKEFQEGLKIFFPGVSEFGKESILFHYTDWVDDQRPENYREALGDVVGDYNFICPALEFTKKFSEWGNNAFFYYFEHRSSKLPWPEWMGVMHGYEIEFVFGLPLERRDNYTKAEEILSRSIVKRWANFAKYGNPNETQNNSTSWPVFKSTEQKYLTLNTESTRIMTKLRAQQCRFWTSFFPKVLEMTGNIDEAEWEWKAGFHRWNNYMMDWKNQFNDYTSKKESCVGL
Method: as §1, §2

[3] = tested on: ICR mice icv-injected with Aβ1–42; experiment: Morris water maze, mice model with icv-injection of Aβ1–42; format: in vivo; details: 10 mg/kg, ip; compared with compound 8
Method: Mice model with icv-injection of Aβ1–42 The experiments were performed using ICR male mice (8–10 weeks old, weight 18–20 g), which were purchased from Shanghai Bikai Animal Breeding Factory (Shanghai, China). Animals were housed in cages (6 mice per cage) at a constant temperature of 25±2 °C, humidity of 55%±10% and a light/dark (12:12) cycle. The mice had unlimited access to food and water prior to the experiment. Specified conditions for the maintenance of mice were ensured throughout the experiments, including tree bedding (Yizheng Anlimao Biotechnology Co., Ltd., China) and lab feed (Zimao, China). For behavioural tests, mice were selected randomly, each group consisted of 6 mice. The experiments were performed between 9 am and 3 pm.
According to the literature procedure, recombinant human hexafluoroisopropanol-pretreated Aβ1–42 from Merck Millipore (Darmstadt, Germany) was dissolved in 1% DMSO, diluted with saline to the final concentration of 2 mg/mL, and incubated for 72 h to form oligomers. […]
Behavioural assays The Morris water maze was placed in a lighted room at 25 °C, and it was divided into four equal quadrants. […] The time spent searching for the missing platform was recorded by Xeye Aba image processing system (Beijing Zhongshi Dichuang Technology Development Co., Ltd.) and analysed by GraphPad Prism 5.

hBChE [4] = biological target: T1, hBChE; experiment: hBChE binding kinetics: carbamoylation and decarbamoylation, initial velocity measurements; format: biochemical
Method: The progress curves for the time courses of product formation for the hydrolysis of butyrylthiocholine iodide were measured on an Agilent Cary 3500 UV–VIS spectrophotometer with Compact Peltier (thermostated at 25 °C) at 412 nm using a 0.6 mL cuvette (optical path–0.5 cm). 30 mmol/L Tris buffer pH 7.0 with 1 mg/mL BSA and 0.02% NaN3 was used and all dilutions were done in glass vessels (note: dilute hBChE solutions rapidly lose activity, presumably due to adsorption to plastic, preventing meaningful decarbamoylation assays. In our hands, under the above conditions only, the diluted and stock solutions of hBChE were stable for at least a month at room temperature.). Total volume in the cuvette was always 500 μL, and enzyme solutions that gave upon dilution v0 = (dA/dt) ≈ 0.5 (for carbamoylation) and ≈ 1 for (for decarbamoylation) were used. For carbamoylation experiments, 0.5–1 μL of enzyme stock, 5 μL of compound solution, and 484 μL of buffer were preincubated for the specified time, then 10 μL of the mixture of 25 mmol/L Ellman’s reagent (DTNB) and 20 mmol/L butyrylthiocholine (large excess to prevent substrate depletion) were added, quickly mixed, and measurement started. […] The data analysis followed the literature[63]^,[98].

## CCC1(c2cnc[nH]2)Cc2ccccc2C1 [Compound 5, 4-(2-ethylindan-2-yl)-1H-imidazole, reference compound]
α2 adrenoreceptors
  potency compared to idazoxan 2: approx. 100 fold
[1]
  half-life: 1.7 to 2 h
hAChE
  remaining activity at 100 µM: 82%
hBChE [2]; ChEs (hBChE and hAChE)
  ChE inhibition of the leaving groups: ineffective
hBChE [2]; residual activity at 100 μmol/L, after 5 min preincubation, read-out: hBChE RA±SD (residual activity)
  remaining activity at 100 µM: 82%

## CCN(C)C(=O)n1cnc(C2(CC)Cc3ccccc3C2)c1 [Compound 7, N-Ethyl-4-(2-ethylindan-2-yl)-N-methyl-1H-imidazole-1-carboxamide]
[3]
  effectiveness in MWM test: less effective
hAChE; pre-incubation time varied
  hAChE time-dependency observed: Yes/No: Yes
hAChE
  remaining activity at 100 µM: 52 ± 3%
hBChE [2]; after 5 min preincubation, read-out: hBChE IC50±SD
  IC50: 9.9 ± 0.9 nM
hBChE [2]; pre-incubation time varied
  hBChE time-dependency observed: Yes/No: Yes
hBChE [4]
  Ki: 73 ± 6 nM
hBChE [4]; 25 °C
  kcarb, carbamoylation: 7.2±4.5 min^–1
  kdecarb, decarbamoylation: 0.92±0.14 ×10^–2 h^–1
  t1/2, decarbamoylation: 75 ± 11 h
  ΔG25°C‡, carbamoylation: 18.7 ± 0.4 kcal/mol
